From patent US20230099696A1, “NANO-COMPOSITE MICROPARTICLES OF POLYMYXIN” (Purdue Research Foundation, priority 2020, published 2023)

Experiments:
[1] = tested on: Pseudomonas aeruginosa (PA); details: when combined with polymyxin B; cited from earlier work
[2] = Crystallinity by powder X-ray diffraction (PXRD); assay type: physicochemical; details: state of Iva, FIG. 1B, 3A, 3B
Method: Crystalline state of the optimal Iva-BSA-NPs and the physical mixture (PM) of BSA and Iva were characterized by the powder X-ray diffraction (PXRD, SmartLabTM diffractometer, Rigaku Americas, Austin, USA) with Cu-Kα radiation source, operating at 40 kV and 44 mA . The scanning 2θ range was set as 5 to 60° with a scanning rate of 5°/min ([…] et al., 2018a). Crystalline state of co-delivery microparticles and the PM of BSA, Iva, Col and L-leucine were characterized by PXRD with the similar method as to detect the optimal nanoparticles.

[3] = tested on: Staphylococcus aureus (SA); details: against SA; cited from earlier work

crystalline state (PXRD) [2]: crystalline
SMILES: CC(C)(C)c1cc(C(C)(C)C)c(NC(=O)c2c[nH]c3ccccc3c2=O)cc1O [Iva, Ivacaftor]
antimicrobial activity against PA [1]: significant antimicrobial activity
MIC [3]: 8~32 mg/L
